Assay [1] has as its target T1, human Gcg receptor (hGcgR) (Homo sapiens, UniProt P47871).
T1 construct: expressed in transfected cells; crude membranes
The experiment in a line: [125I]-Glucagon binding, SPA with membranes of HEK293 cells expressing hGcgR. The note with it: human GcgR; geometric mean (SEM, n); read-out: Binding Affinity Ki, nM (SEM, n) hGCGR.

A further assay has as its target T2, hGIPR (Homo sapiens, UniProt P48546).
T2 construct: expressed in transfected cells
T2 sequence (P48546 22-466): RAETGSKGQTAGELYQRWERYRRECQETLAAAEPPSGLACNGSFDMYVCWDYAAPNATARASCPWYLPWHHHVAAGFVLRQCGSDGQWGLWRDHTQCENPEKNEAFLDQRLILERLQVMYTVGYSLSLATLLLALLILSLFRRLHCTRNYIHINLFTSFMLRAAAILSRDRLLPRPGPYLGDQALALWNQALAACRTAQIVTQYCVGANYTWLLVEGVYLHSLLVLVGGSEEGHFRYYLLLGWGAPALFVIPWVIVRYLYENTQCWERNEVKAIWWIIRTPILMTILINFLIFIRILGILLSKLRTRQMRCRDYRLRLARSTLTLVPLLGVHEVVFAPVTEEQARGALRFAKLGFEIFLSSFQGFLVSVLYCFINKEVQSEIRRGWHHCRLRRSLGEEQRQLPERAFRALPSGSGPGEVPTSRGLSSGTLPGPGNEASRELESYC
Briefly: Functional cAMP formation (HTRF) in HEK-293 clonal cells expressing hGIPR, 0.1% bovine casein, without or with 1.0% human serum albumin. Format: cell-based. The settings on record: for EC50: geometric mean, read-out: hGIPR EC50, nM (SEM, n); for Emax: read-out: hGIPR Emax, % ± SEM. The gist of the method: (§1)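 Cells were stimulated with peptide for 30 min at 37° C, then lysed in buffer carrying cAMP-d2 and anti-cAMP Eu3+-cryptate for a competitive HTRF read after at least 60 min at room temperature. The 665/620 nm ratio was converted to nM cAMP against a standard curve.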
(cAMP levels reflect the balance of adenylyl cyclase and phosphodiesterase activity.)

The next assay addresses T3, hGCGR (Homo sapiens, UniProt P47871).
T3 construct: expressed in transfected cells
The experiment in a line: Functional cAMP formation (HTRF) in HEK-293 clonal cells expressing hGCGR, 0.1% bovine casein, without or with 1.0% human serum albumin. Format: cell-based. The note with it: read-out: hGCGR EC50, nM (SEM, n). The gist of the method:
as §1

The target of another assay is hGLP-1R (Homo sapiens, UniProt P43220). Briefly: Functional cAMP formation (HTRF) in HEK-293 clonal cells expressing hGLP-1R, 0.1% bovine casein, without or with 1.0% human serum albumin. The settings on record: 37° C.; for EC50: read-out: hGLP-1R EC50, nM (SEM, n); for Emax: read-out: hGLP-1R Emax, % ± SEM. Format: cell-based. More on the design: expressed in transfected cells. The gist of the method:
as §1

Setting [2] is: 0.1% bovine casein and 1.0% human serum albumin, 37° C.
The mark [3] stands for this setting: HEK293, 0.1% bovine casein and 1.0% human serum albumin, 37° C., percent of maximal response to GIP(1-42)NH2.
Where [4] appears, read: HEK293, percent of maximal response to GIP(1-42)NH2, 37° C., 0.1% bovine casein, arithmetic mean.
[5] abbreviates: 0.1% bovine casein and 1.0% human serum albumin, 37° C., geometric mean.
[6] abbreviates: cAMP, incubated at 37° C., 0.1% bovine casein (no human serum albumin), geometric mean.
Where [7] appears, read: 0.1% bovine casein and 1.0% human serum albumin, geometric mean.

Broadly, the Ki is the dissociation constant of the complex between target and ligand, obtained from inhibition or displacement. The term EC50 denotes the concentration giving half of the maximal effect. By Emax is commonly meant the maximal effect, on the per cent scale that the assay sets.

Molecules are shown by their SMILES. Read-outs that look alike come from different tables or passages of the source. *1 amine or outer side, *2 acyl side, *3 side chain or, on linkers, in order; H or OH if unused. Where a SMILES comes first, the peptide text is derived from it. Side-chain parts run from the residue outwards. [ ]: non-standard residue; d: D form. The star is where a group is joined. αMePhe(2-F) = C[C@](N)(Cc1ccccc1F)C(=O)O; γGlu = O=C(O)[C@H](CCC(=O)[*:2])N[*:1]; C14 diacid = O=C(O)CCCCCCCCCCCCC(=O)*; αMeY = C[C@](N)(Cc1ccc(O)cc1)C(=O)O; 4Pal = N[C@@H](Cc1ccncc1)C(=O)O; αMeL = CC(C)C[C@](C)(N)C(=O)O; Orn = NCCC[C@H](N)C(=O)O; AEEA = NCCOCCOCC(=O)O; Aib = CC(C)(N)C(=O)O

Chain of hGLP-1R (P43220 24-463): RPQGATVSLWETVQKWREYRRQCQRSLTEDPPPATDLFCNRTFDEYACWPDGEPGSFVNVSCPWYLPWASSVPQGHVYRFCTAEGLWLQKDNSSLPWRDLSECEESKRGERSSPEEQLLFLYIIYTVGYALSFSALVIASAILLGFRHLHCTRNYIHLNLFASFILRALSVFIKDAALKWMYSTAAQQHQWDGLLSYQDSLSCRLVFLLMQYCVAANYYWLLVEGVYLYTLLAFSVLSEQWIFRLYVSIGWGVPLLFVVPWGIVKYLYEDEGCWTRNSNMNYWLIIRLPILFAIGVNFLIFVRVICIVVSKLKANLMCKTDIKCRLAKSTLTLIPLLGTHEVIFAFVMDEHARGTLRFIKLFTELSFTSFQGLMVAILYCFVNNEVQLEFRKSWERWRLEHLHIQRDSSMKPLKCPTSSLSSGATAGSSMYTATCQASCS
T3 sequence (P47871 26-477): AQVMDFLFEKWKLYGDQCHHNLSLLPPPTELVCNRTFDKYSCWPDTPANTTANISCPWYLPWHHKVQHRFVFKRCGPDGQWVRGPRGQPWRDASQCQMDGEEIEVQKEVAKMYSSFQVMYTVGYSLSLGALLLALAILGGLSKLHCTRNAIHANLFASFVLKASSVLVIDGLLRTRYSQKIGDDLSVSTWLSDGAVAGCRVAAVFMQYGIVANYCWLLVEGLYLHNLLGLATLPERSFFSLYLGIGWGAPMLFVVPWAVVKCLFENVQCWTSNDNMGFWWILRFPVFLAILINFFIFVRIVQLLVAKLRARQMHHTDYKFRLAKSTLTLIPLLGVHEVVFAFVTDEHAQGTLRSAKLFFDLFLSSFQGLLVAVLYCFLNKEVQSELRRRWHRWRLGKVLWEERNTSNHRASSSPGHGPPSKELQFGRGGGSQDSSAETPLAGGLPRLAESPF
T1 sequence (P47871 26-477): as above

Turning to `CC[C@H](C)[C@H](NC(=O)[C@H](CCCN)NC(=O)[C@H](CC(=O)O)NC(=O)[C@H](CC(C)C)NC(=O)[C@](C)(CC(C)C)NC(=O)[C@@H](NC(=O)[C@H](CO)NC(=O)[C@H](Cc1ccncc1)NC(=O)[C@H](CC(=O)O)NC(=O)[C@H](CO)NC(=O)[C@@H](NC(=O)[C@](C)(Cc1ccccc1F)NC(=O)[C@@H](NC(=O)CNC(=O)[C@H](CCC(=O)O)NC(=O)C(C)(C)NC(=O)[C@@H](N)Cc1ccc(O)cc1)[C@@H](C)O)[C@@H](C)O)[C@@H](C)CC)C(=O)N[C@@H](C)C(=O)N[C@@H](CCC(N)=O)C(=O)NC(C)(C)C(=O)N[C@@H](CCC(=O)O)C(=O)N[C@@H](Cc1ccccc1)C(=O)N[C@H](C(=O)N[C@H](CCC(=O)O)C(=O)N[C@@](C)(Cc1ccc(O)cc1)C(=O)N[C@@H](CC(C)C)C(=O)N[C@H](C(=O)N[C@@H](CCCCNC(=O)COCCOCCNC(=O)COCCOCCNC(=O)CC[C@H](NC(=O)CCCCCCCCCCCCC(=O)O)C(=O)O)C(=O)NCC(=O)NCC(=O)N[C@@H](CCCCNC(=O)COCCOCCNC(=O)COCCOCCNC(=O)CC[C@H](NC(=O)CCCCCCCCCCCCC(=O)O)C(=O)O)C(=O)N[C@@H](CO)C(=O)N[C@@H](CO)C(=O)NCC(=O)N[C@@H](C)C(=O)N1CCC[C@H]1C(=O)N1CCC[C@H]1C(=O)N1CCC[C@H]1C(=O)N[C@@H](CO)C(N)=O)[C@@H](C)CC)[C@@H](C)CC` [Example 20], in assay [1], the Ki was 139 nM. Also, the EC50 was 1.66 nM on hGIPR (setting [2]), greater than 9950 nM at hGCGR (setting [5]), greater than 9950 nM at hGCGR (setting [6]) and 62.4 nM at hGLP-1R (setting [7]). Also, the Emax at hGIPR (setting [3]) was found to be 90.6 ± 0.878%; at hGIPR (setting [4]) it was 98.8 ± 3.19%.
`CC[C@H](C)[C@H](NC(=O)[C@H](CC(C)C)NC(=O)[C@](C)(Cc1ccc(O)cc1)NC(=O)[C@@H](CCC(=O)O)NC(=O)[C@@H](NC(=O)[C@H](Cc1ccccc1)NC(=O)[C@H](CCCCNC(=O)COCCOCCNC(=O)COCCOCCNC(=O)CC[C@H](NC(=O)CCCCCCCCCCCCC(=O)O)C(=O)O)NC(=O)C(C)(C)NC(=O)[C@H](CCC(N)=O)NC(=O)[C@H](C)NC(=O)[C@H](CCC(N)=O)NC(=O)[C@H](CCCN)NC(=O)[C@H](CC(=O)O)NC(=O)[C@H](CC(C)C)NC(=O)[C@](C)(CC(C)C)NC(=O)[C@@H](NC(=O)C(C)(C)NC(=O)[C@H](Cc1ccncc1)NC(=O)[C@H](CC(=O)O)NC(=O)[C@H](CO)NC(=O)[C@@H](NC(=O)[C@](C)(Cc1ccccc1F)NC(=O)[C@@H](NC(=O)CNC(=O)[C@H](CCC(=O)O)NC(=O)C(C)(C)NC(=O)[C@@H](N)Cc1ccc(O)cc1)[C@@H](C)O)[C@@H](C)O)[C@@H](C)CC)[C@@H](C)CC)C(=O)N[C@@H](CCC(=O)O)C(=O)NCC(=O)NCC(=O)N1CCC[C@H]1C(=O)N[C@@H](CO)C(=O)N[C@@H](CO)C(=O)NCC(=O)N[C@@H](C)C(=O)N1CCC[C@H]1C(=O)N1CCC[C@H]1C(=O)N1CCC[C@H]1C(=O)N[C@@H](CO)C(=O)N[C@@H](CCCCNC(=O)COCCOCCNC(=O)COCCOCCNC(=O)CC[C@H](NC(=O)CCCCCCCCCCCCC(=O)O)C(=O)O)C(N)=O` [Example 489] (H-Y[Aib]EGT[αMePhe(2-F)]TSD[4Pal][Aib]I[αMeL]LD[Orn]QAQ[Aib]K([AEEA-AEEA-γGlu-C14 diacid])FI[dE][αMeY]LIEGGPSSGAPPPSK([AEEA-AEEA-γGlu-C14 diacid])-NH2): the Ki in assay [1] was greater than 957 nM. Moreover, the Emax stood at 79.4% at hGIPR (HEK293, cAMP, 37° C., 0.1% bovine casein and 1.0% human serum albumin, percent of maximal response to GIP(1-42)NH2); 98.7% on hGLP-1R (HEK293, cAMP, 0.1% bovine casein and 1.0% human serum albumin, percent of maximal response to GLP-1(7-36)NH2); 112% at hGLP-1R (HEK293, cAMP, 0.1% bovine casein, percent of maximal response to GLP-1(7-36)NH2, arithmetic mean). For the same compound, the EC50 at hGIPR (cAMP, 37° C., 0.1% bovine casein (no human serum albumin)) is 0.0131 nM; on hGCGR (cAMP, 37° C., 0.1% bovine casein (no human serum albumin), geometric mean), greater than 10100 nM; at hGCGR (cAMP, 37° C., 0.1% bovine casein and 1.0% human serum albumin, geometric mean (SEM, n)) it was greater than 9950 nM; on hGLP-1R (cAMP, 0.1% bovine casein (no human serum albumin), geometric mean), 0.257 nM; on hGLP-1R (cAMP, 0.1% bovine casein and 1.0% human serum albumin, geometric mean (SEM, n)), 13.5 nM.
In the case of `CC[C@H](C)[C@H](NC(=O)[C@H](CCCN)NC(=O)[C@H](CC(=O)O)NC(=O)[C@H](CC(C)C)NC(=O)[C@](C)(CC(C)C)NC(=O)[C@@H](NC(=O)[C@H](CO)NC(=O)[C@H](Cc1ccncc1)NC(=O)[C@H](CC(=O)O)NC(=O)[C@H](CO)NC(=O)[C@@H](NC(=O)[C@](C)(Cc1ccccc1F)NC(=O)[C@@H](NC(=O)CNC(=O)[C@H](CCC(=O)O)NC(=O)C(C)(C)NC(=O)[C@@H](N)Cc1ccc(O)cc1)[C@@H](C)O)[C@@H](C)O)[C@@H](C)CC)C(=O)N[C@@H](C)C(=O)N[C@@H](CCC(N)=O)C(=O)NC(C)(C)C(=O)N[C@@H](CCC(=O)O)C(=O)N[C@@H](Cc1ccccc1)C(=O)N[C@H](C(=O)N[C@@H](CCCCNC(=O)COCCOCCNC(=O)COCCOCCNC(=O)CC[C@H](NC(=O)CCCCCCCCCCCCC(=O)O)C(=O)O)C(=O)N[C@@](C)(Cc1ccc(O)cc1)C(=O)N[C@@H](CC(C)C)C(=O)N[C@H](C(=O)N[C@@H](CCCCNC(=O)COCCOCCNC(=O)COCCOCCNC(=O)CC[C@H](NC(=O)CCCCCCCCCCCCC(=O)O)C(=O)O)C(=O)NCC(=O)NCC(=O)N1CCC[C@H]1C(=O)N[C@@H](CO)C(=O)N[C@@H](CO)C(=O)NCC(=O)N[C@@H](C)C(=O)N1CCC[C@H]1C(=O)N1CCC[C@H]1C(=O)N1CCC[C@H]1C(=O)N[C@@H](CO)C(N)=O)[C@@H](C)CC)[C@@H](C)CC` [Example 70], the Ki in assay [1] worked out at 151 nM. Besides, the Emax amounted to 89.9 ± 0.987% on hGIPR (setting [3]); 89.1 ± 2.3% on hGIPR (setting [4]); 100 ± 3.11% at hGLP-1R (HEK293, percent of maximal response to GLP-1(7-36)NH2, 0.1% bovine casein, arithmetic mean). For the same compound, the EC50 is 0.0182 nM at hGIPR (cAMP, incubated at 37° C., 0.1% bovine casein (no human serum albumin)); greater than 9950 nM on hGCGR (setting [5]); greater than 9950 nM at hGCGR (setting [6]); 27 nM on hGLP-1R (setting [7]).
Consider `CC[C@H](C)[C@H](NC(=O)[C@H](CC(C)C)NC(=O)[C@](C)(Cc1ccc(O)cc1)NC(=O)[C@@H](CCC(=O)O)NC(=O)[C@@H](NC(=O)[C@H](Cc1ccccc1)NC(=O)[C@H](CCC(=O)O)NC(=O)C(C)(C)NC(=O)[C@H](CCC(N)=O)NC(=O)[C@H](C)NC(=O)[C@H](CCCCNC(=O)COCCOCCNC(=O)COCCOCCNC(=O)CC[C@H](NC(=O)CCCCCCCCCCCCC(=O)O)C(=O)O)NC(=O)[C@H](CCCN)NC(=O)[C@H](CC(=O)O)NC(=O)[C@H](CC(C)C)NC(=O)[C@](C)(CC(C)C)NC(=O)[C@@H](NC(=O)[C@H](CO)NC(=O)[C@H](CCCCNC(=O)COCCOCCNC(=O)COCCOCCNC(=O)CC[C@H](NC(=O)CCCCCCCCCCCCC(=O)O)C(=O)O)NC(=O)[C@H](CC(=O)O)NC(=O)[C@H](CO)NC(=O)[C@@H](NC(=O)[C@](C)(Cc1ccccc1F)NC(=O)[C@@H](NC(=O)CNC(=O)[C@H](CCC(=O)O)NC(=O)C(C)(C)NC(=O)[C@@H](N)Cc1ccc(O)cc1)[C@@H](C)O)[C@@H](C)O)[C@@H](C)CC)[C@@H](C)CC)C(=O)N[C@@H](CCC(=O)O)C(=O)NCC(=O)NCC(=O)N1CCC[C@H]1C(=O)N[C@@H](CO)C(=O)N[C@@H](CO)C(=O)NCC(=O)N[C@@H](C)C(=O)N1CCC[C@H]1C(=O)N1CCC[C@H]1C(=O)N1CCC[C@H]1C(=O)N[C@@H](CO)C(N)=O` [Example 27], for which, in assay [1], the Ki was greater than 958 nM. Further, the EC50 on hGIPR (setting [2]) was 6.78 nM; on hGCGR (setting [5]), greater than 9950 nM; at hGCGR (setting [6]), greater than 9950 nM; at hGLP-1R (setting [7]), 70.2 nM. Further, the Emax on hGIPR (setting [3]) was 82.8 ± 1.14%; on hGIPR (setting [4]), 88.8%; at hGLP-1R (HEK293, 0.1% bovine casein and 1.0% human serum albumin, percent of maximal response to GLP-1(7-36)NH2) it was 110 ± 3.03%.
